Source: the NIST ThermoML archive (doi:10.1016/j.jct.2016.12.032)

Test: xn = mol fraction of the nth substance listed
Settings: 100 kPa, Liquid; for viscosity: Capillary tube (Ostwald / Ubbelohde) method; for mass density: Vibrating tube method

O=C1CCCCO1 [1-oxacyclohexan-2-one] + CCCC[n+]1ccn(C)c1.O=S(=O)([N-]S(=O)(=O)C(F)(F)F)C(F)(F)F
Settings	mass density [kg/m3]	viscosity [mPa·s]
293.15 K, x2 = 0	1108.53	3.68
293.15 K, x2 = 0.0532	1156.68	4.6
293.15 K, x2 = 0.1004	1196.3	5.91
293.15 K, x2 = 0.1504	1229.63	7.47
293.15 K, x2 = 0.1999	1257.2	8.95
293.15 K, x2 = 0.2988	1300.9	13.08
293.15 K, x2 = 0.4006	1337.77	17.95
293.15 K, x2 = 0.5005	1362.9	23.77
293.15 K, x2 = 0.5999	1384.82	30.89
293.15 K, x2 = 0.7	1402.18	37.58
293.15 K, x2 = 0.8013	1418.26	44.8
293.15 K, x2 = 0.8986	1429.23	52.57
298.15 K, x2 = 0	1103.96	3.3
298.15 K, x2 = 0.0532	1152.03	4.09
298.15 K, x2 = 0.1004	1191.61	5.26
298.15 K, x2 = 0.1504	1224.89	6.47
298.15 K, x2 = 0.1999	1252.42	7.78
298.15 K, x2 = 0.2988	1296.08	11.15
298.15 K, x2 = 0.4006	1332.91	15.14
298.15 K, x2 = 0.5005	1358.02	19.8
298.15 K, x2 = 0.5999	1379.92	25.62
298.15 K, x2 = 0.7	1397.27	31.17
298.15 K, x2 = 0.8013	1413.33	37.32
298.15 K, x2 = 0.8986	1424.29	43.18
303.15 K, x2 = 0	1099.44	2.98
303.15 K, x2 = 0.0532	1147.37	3.7
303.15 K, x2 = 0.1004	1186.86	4.58
303.15 K, x2 = 0.1504	1220.09	5.64
303.15 K, x2 = 0.1999	1247.58	6.74
303.15 K, x2 = 0.2988	1291.17	9.63
303.15 K, x2 = 0.4006	1327.96	12.92
303.15 K, x2 = 0.5005	1353.03	16.77
303.15 K, x2 = 0.5999	1374.9	21.34
303.15 K, x2 = 0.7	1392.22	25.71
303.15 K, x2 = 0.8013	1408.28	30.93
303.15 K, x2 = 0.8986	1419.22	35.78
308.15 K, x2 = 0	1094.83	2.7
308.15 K, x2 = 0.0532	1142.72	3.21
308.15 K, x2 = 0.1004	1182.16	4.08
308.15 K, x2 = 0.1504	1215.34	5.09
308.15 K, x2 = 0.1999	1242.79	6.06
308.15 K, x2 = 0.2988	1286.33	8.42
308.15 K, x2 = 0.4006	1323.08	11.04
308.15 K, x2 = 0.5005	1348.13	14.16
308.15 K, x2 = 0.5999	1369.99	18.33
308.15 K, x2 = 0.7	1387.29	21.9
308.15 K, x2 = 0.8013	1403.33	25.49
308.15 K, x2 = 0.8986	1414.26	29.16
313.15 K, x2 = 0	1090.27	2.47
313.15 K, x2 = 0.0532	1138.1	2.9
313.15 K, x2 = 0.1004	1177.47	3.67
313.15 K, x2 = 0.1504	1210.6	4.49
313.15 K, x2 = 0.1999	1238.01	5.31
313.15 K, x2 = 0.2988	1281.5	7.36
313.15 K, x2 = 0.4006	1318.2	9.61
313.15 K, x2 = 0.5005	1343.21	12.24
313.15 K, x2 = 0.5999	1365.03	15.74
313.15 K, x2 = 0.7	1382.31	18.59
313.15 K, x2 = 0.8013	1398.33	21.65
313.15 K, x2 = 0.8986	1409.25	24.7
318.15 K, x2 = 0	1085.71	2.25
318.15 K, x2 = 0.0532	1133.47	2.63
318.15 K, x2 = 0.1004	1172.79	3.24
318.15 K, x2 = 0.1504	1205.87	4.02
318.15 K, x2 = 0.1999	1233.25	4.72
318.15 K, x2 = 0.2988	1276.69	6.55
318.15 K, x2 = 0.4006	1313.34	8.49
318.15 K, x2 = 0.5005	1338.33	10.65
318.15 K, x2 = 0.5999	1360.13	13.7
318.15 K, x2 = 0.7	1377.38	15.98
318.15 K, x2 = 0.8013	1393.37	18.79
318.15 K, x2 = 0.8986	1404.27	21.14
323.15 K, x2 = 0	1081.16	2.09
323.15 K, x2 = 0.0532	1128.86	2.44
323.15 K, x2 = 0.1004	1168.12	2.96
323.15 K, x2 = 0.1504	1201.16	3.63
323.15 K, x2 = 0.1999	1228.6	4.26
323.15 K, x2 = 0.2988	1271.85	5.82
323.15 K, x2 = 0.4006	1308.45	7.49
323.15 K, x2 = 0.5005	1333.4	9.29
323.15 K, x2 = 0.5999	1355.18	11.2
323.15 K, x2 = 0.7	1372.41	13.85
323.15 K, x2 = 0.8013	1388.38	15.68
323.15 K, x2 = 0.8986	1399.26	17.85

CC1CC(=O)O1 (stereo unspecified) [4-methyl-2-oxetanone] + CCCC[n+]1ccn(C)c1.O=S(=O)([N-]S(=O)(=O)C(F)(F)F)C(F)(F)F
Settings	mass density [kg/m3]	viscosity [mPa·s]
293.15 K, x2 = 0	1055.93	1.68
293.15 K, x2 = 0.0493	1119.77	2.14
293.15 K, x2 = 0.1001	1167.52	2.75
293.15 K, x2 = 0.1526	1207.48	3.44
293.15 K, x2 = 0.2001	1240.41	4.75
293.15 K, x2 = 0.3001	1291.51	7.22
293.15 K, x2 = 0.4013	1329.17	10.69
293.15 K, x2 = 0.5004	1358.85	15.69
293.15 K, x2 = 0.5995	1382.95	22.26
293.15 K, x2 = 0.6929	1401.02	29.27
293.15 K, x2 = 0.814	1415.81	40.15
293.15 K, x2 = 0.9001	1434.72	50.31
298.15 K, x2 = 0	1050.68	1.55
298.15 K, x2 = 0.0493	1114.58	1.97
298.15 K, x2 = 0.1001	1162.33	2.52
298.15 K, x2 = 0.1526	1202.28	3.17
298.15 K, x2 = 0.2001	1235.24	4.38
298.15 K, x2 = 0.3001	1286.4	6.59
298.15 K, x2 = 0.4013	1324.12	9.61
298.15 K, x2 = 0.5004	1353.84	13.44
298.15 K, x2 = 0.5995	1377.94	18.55
298.15 K, x2 = 0.6929	1396.05	24.32
298.15 K, x2 = 0.814	1410.84	32.91
298.15 K, x2 = 0.9001	1429.79	41.25
303.15 K, x2 = 0	1045.31	1.48
303.15 K, x2 = 0.0493	1109.25	1.83
303.15 K, x2 = 0.1001	1157.05	2.3
303.15 K, x2 = 0.1526	1197	2.98
303.15 K, x2 = 0.2001	1229.97	3.9
303.15 K, x2 = 0.3001	1281.21	5.87
303.15 K, x2 = 0.4013	1318.98	8.14
303.15 K, x2 = 0.5004	1348.71	11.56
303.15 K, x2 = 0.5995	1372.86	15.74
303.15 K, x2 = 0.6929	1390.95	20.81
303.15 K, x2 = 0.814	1405.72	27.46
303.15 K, x2 = 0.9001	1424.69	34.24
308.15 K, x2 = 0	1039.85	1.4
308.15 K, x2 = 0.0493	1103.89	1.73
308.15 K, x2 = 0.1001	1151.73	2.13
308.15 K, x2 = 0.1526	1191.76	2.78
308.15 K, x2 = 0.2001	1224.72	3.51
308.15 K, x2 = 0.3001	1276.02	5.33
308.15 K, x2 = 0.4013	1313.79	7.28
308.15 K, x2 = 0.5004	1343.59	10.05
308.15 K, x2 = 0.5995	1367.78	13.61
308.15 K, x2 = 0.6929	1385.91	17.63
308.15 K, x2 = 0.814	1400.7	23.24
308.15 K, x2 = 0.9001	1419.71	28.09
313.15 K, x2 = 0	1034.33	1.33
313.15 K, x2 = 0.0493	1098.48	1.63
313.15 K, x2 = 0.1001	1146.34	1.99
313.15 K, x2 = 0.1526	1186.34	2.55
313.15 K, x2 = 0.2001	1219.4	3.21
313.15 K, x2 = 0.3001	1270.76	4.72
313.15 K, x2 = 0.4013	1308.61	6.41
313.15 K, x2 = 0.5004	1338.44	8.82
313.15 K, x2 = 0.5995	1362.65	11.75
313.15 K, x2 = 0.6929	1380.83	15.03
313.15 K, x2 = 0.814	1395.6	19.76
313.15 K, x2 = 0.9001	1414.64	23.76
318.15 K, x2 = 0	1028.79	1.25
318.15 K, x2 = 0.0493	1093.01	1.53
318.15 K, x2 = 0.1001	1140.96	1.86
318.15 K, x2 = 0.1526	1181.02	2.36
318.15 K, x2 = 0.2001	1214.09	2.94
318.15 K, x2 = 0.3001	1265.51	4.23
318.15 K, x2 = 0.4013	1303.39	5.76
318.15 K, x2 = 0.5004	1333.28	7.74
318.15 K, x2 = 0.5995	1357.54	10.26
318.15 K, x2 = 0.6929	1375.74	13.01
318.15 K, x2 = 0.814	1390.55	16.82
318.15 K, x2 = 0.9001	1409.63	20.35
323.15 K, x2 = 0	1023.19	1.18
323.15 K, x2 = 0.0493	1087.48	1.46
323.15 K, x2 = 0.1001	1135.51	1.72
323.15 K, x2 = 0.1526	1175.61	2.21
323.15 K, x2 = 0.2001	1208.72	2.7
323.15 K, x2 = 0.3001	1260.23	3.92
323.15 K, x2 = 0.4013	1298.21	5.18
323.15 K, x2 = 0.5004	1328.11	6.91
323.15 K, x2 = 0.5995	1352.41	9.02
323.15 K, x2 = 0.6929	1370.64	11.4
323.15 K, x2 = 0.814	1385.49	14.41
323.15 K, x2 = 0.9001	1404.58	17.27
